Results published in US20150150893A1, “ANDROGRAPHOLIDE ANALOGS AND THEIR USE FOR MEDICATION” (LIAONING LIFENG SCIENTIFIC & TECHNOLOGY DEVELOPMENT COMPANY …, priority 2012, published 2015).
Like-named read-outs stand apart in the source and are kept apart here.

Legend:
Format in all cases: cell-based
Influenza A virus H1N1 = assay: microbe, parasite or virus in culture; settings: H1N1, read-out: In-Vitro Antiviral Screening Result (EC50) H
[1] = system: Japanese encepahalitis virus; settings: read-out: In-Vitro Antiviral Screening Result (EC50) C
SARS coronavirus = assay: microbe, parasite or virus in culture; settings: Severe acute respiratory syndrome coronavirus
many virus = assay: Antivirus studies in vitro, summary over the virus panel; settings: read-out: EC50 against many virus
Procedure: compounds were diluted to 20 mg/mL in DMSO then prepared in for log 10 dilutions of 100 μg/mL down to 0.1 μg/mL) in MEM solution with 50 μg/mL gentamicin and 2% FBS. Each dilution was added to 5 wells of a 96-well plate with 80-100% confluent cells. Three wells of each dilution were infected with virus, and two wells remained uninfected as toxicity controls. The multiplicity of infection (MOI) was as low as possible to achieve CPE within 3-5 days of incubation. A known active compound was tested in parallel as a control. After untreated virus control wells reached maximum cytopathic effect (CPE), each well was scored microscopically. Plates were then stained with neutral red dye for approximately 2 hours, then supernatant dye was removed from the wells and the incorporated dye was extracted in 50:50 Sorensen citrate buffer/ethanol, then the optical density was read on a spectrophotometer.

[2] = system: Venezuelan equine encephalitis virus; assay: microbe, parasite or virus in culture; settings: read-out: In-Vitro Antiviral Screening Result (EC50) G
Rift Valley fever virus = assay: microbe, parasite or virus in culture
[3] = read-out: In-Vitro Antiviral Screening Result (EC50) F
[4] = read-out: In-Vitro Antiviral Screening Result (EC50) E

| SMILES | EC50 (Influenza A virus H1N1) | EC50 [1] | EC50 (SARS coronavirus; [3]) | EC50 (many virus) | EC50 [2] | EC50 (Rift Valley fever virus; [4]) | EC50 (SARS coronavirus; read-out: EC50 against virus F) | EC50 (Rift Valley fever virus; read-out: EC50 against virus E) |
| --- | --- | --- | --- | --- | --- | --- | --- | --- |
| CC(NC1CC2[C@](C)(CC[C@@H](O)[C@@]2(C)CO)C(/C=C/C2=CC(=C\c3cnc(N4CCN(C)CC4)nc3)/OC2=O)C12CO2)C(=O)NC1=NCC=N1 (stereo partly shown) [Example 23, 7-((2-((4H-imidazol-2-yl)amino)-1-oxopropan-2-yl)amino)-11,12-dedihydro-14-deoxy-(E)-15-((2-(4-methylpiperazin-1-yl)pyrimidin-5-yl)methylene)-8,17-epoxyandrographolide] | > 100 µg/mL | < 50 µg/mL | < 50 µg/mL | < 50 µg/mL | < 50 µg/mL | < 50 µg/mL |  |  |
| C=C1CCC2C(C)(CO)C(O)CCC2(C)C1/C=C/C1=CC(=C\c2ccc(Cl)cc2Cl)/OC1=O (stereo not shown) [Example 35, 11,12-dedihydro-14-deoxy-(E)-15-(2,4-dichlorobenzylidene)andrographolide] | < 50 µg/mL | < 50 µg/mL | < 50 µg/mL | < 50 µg/mL | < 50 µg/mL | > 100 µg/mL |  |  |
| C=C1CCC2[C@](C)(CC[C@@H](O)[C@@]2(C)CO)C1/C=C/C1=CC(=C\c2ccc(N(C)C)cc2)/OC1=O (stereo partly shown) [Example 37, 11,12-dedihydro-14-deoxy-15-(4-(dimethylamino)benzylidene)andrographolide] | < 50 µg/mL | < 50 µg/mL | < 50 µg/mL |  | < 50 µg/mL | < 50 µg/mL | < 1 µg/mL | < 1 µg/mL |
| C[C@]12CC[C@@H](O)[C@@](C)(CO)C1CCC1(CO1)C2/C=C/C1=CC(=C\c2cnc(N)[nH]c2=O)/OC1=O (stereo partly shown) [Example 38, 11,12-dedihydro-14-deoxy-15-(2-amino-5-oxygen-3H-pyrimidine-5-ylmethylene)-8,17-epoxyandrographolide] | < 100 µg/mL | < 100 µg/mL | < 50 µg/mL | < 50 µg/mL | < 100 µg/mL | > 100 µg/mL |  |  |
| C=C1CCC2C(C)(CO)C(O)CCC2(C)C1/C=C/C1=CC(=C\c2ccc(OC3OC(CO)C(O)C(O)C3O)cc2)/OC1=O (stereo not shown) [Example 40, 11,12-dedihydro-14-deoxy-15-(4-((3,4,5-trihydroxy-6-(hydroxymethyl)tetrahydro-2H-pyran-2-yl)oxy)benzylidene)andrographolide] | > 100 µg/mL | < 100 µg/mL | < 50 µg/mL | < 50 µg/mL | > 100 µg/mL | > 100 µg/mL |  |  |
| COc1cc(/C=C2C=C(/C=C/C3C4(CCC5[C@]3(C)CC[C@@H](O)[C@@]5(C)CO)CO4)C(=O)O\2)cc([N+](=O)[O-])c1O (stereo partly shown) [Example 41, 11,12-dedihydro-14-deoxy-(E)-15-(4-hydroxy-3-methoxy-5-nitrobenzylidene)-8,17-epoxyandrographolide] | < 100 µg/mL | > 100 µg/mL | < 100 µg/mL | < 50 µg/mL | > 100 µg/mL | < 50 µg/mL |  |  |
| C=C1CCC2[C@](C)(CC[C@@H](O)[C@@]2(C)CO)C1/C=C/C1=CC(=C\c2ccc(N(C)C)cc2O)/OC1=O (stereo partly shown) [Example 44] | < 100 µg/mL | > 100 µg/mL | < 50 µg/mL | < 50 µg/mL | > 100 µg/mL | > 100 µg/mL |  |  |
| C=C1CCC2C3(C)COC(c4ccc(OC5OC(CO)C(O)C(O)C5O)cc4)OC3CCC2(C)C1C/C=C1/C(=O)OCC1O (stereo not shown) [Example 45, (E)-3-(2-(6a,10b-dimethyl-8-methylene-3-(4-((3,4,5-trihydroxy-6-(hydroxymethyl)tetrahydro-2H-pyran-2-yl)oxy)phenyl)decahydro-1H-naphtho[2,1-d][1,3]dioxin-7-yl)ethylidene)-4-hydroxydihydrofuran-2(3H)-one] | > 100 µg/mL | < 50 µg/mL | < 50 µg/mL | < 50 µg/mL | < 50 µg/mL | < 50 µg/mL |  |  |
| C=C1CCC2[C@](C)(CC[C@@H](O)[C@@]2(C)CO)C1/C=C/C1=CC(=C\c2cn(C)c3nc(N)ncc23)/OC1=O (stereo partly shown) [Example 46, 11,12-dedihydro-14-deoxy-(E)-15-((2-amino-7-methyl-7H-pyrrolo[2,3-d]pyrimidin-5-yl)methylene)andrographolide] | < 100 µg/mL | < 100 µg/mL | < 50 µg/mL | < 50 µg/mL | < 100 µg/mL | < 50 µg/mL |  |  |
| C=C1CCC2[C@](C)(CC[C@@H](O)[C@@]2(C)CO)C1/C=C/C1=CC(=C\c2cnc(N)[nH]c2=O)/OC1=O (stereo partly shown) [Example 50, 11,12-dedihydro-14-deoxy-15-(2-amino-4-oxo-3H-pyrimidine-5-ylmethylene)andrographolide] | < 50 µg/mL | < 50 µg/mL | < 100 µg/mL | < 50 µg/mL | < 50 µg/mL | < 100 µg/mL |  |  |
| C=C1CCC2C(C)(CO)C(O)CCC2(C)C1CC(Nc1cccc(Cl)c1)C1=CCOC1=O (stereo not shown) [Example 53, 12-((3-chlorophenyl)amino)-14-deoxyandrographolide] | < 50 µg/mL | < 50 µg/mL | < 50 µg/mL |  | < 50 µg/mL | < 10 µg/mL | < 1 µg/mL | < 1 µg/mL |
| C=C1CCC2C(C)(CO)C(O)CCC2(C)C1CC(NC12CN3CN(CN(C3)C1)C2)C1=CCOC1=O (stereo not shown) [Example 57, 12-((1s,3s,5s)-1,3,5-triazaadamantan-7-ylamino)-14-deoxyandrographolide] | < 50 µg/mL | < 50 µg/mL | < 50 µg/mL |  | < 50 µg/mL | < 50 µg/mL | < 1 µg/mL | < 1 µg/mL |
| Cn1cc(/C=C2C=C(/C=C/C3C4(CCC5[C@]3(C)CC[C@@H](O)[C@@]5(C)CO)CO4)C(=O)O\2)c2cnc(N)nc21 (stereo partly shown) [Example 59, 11,12-dedihydro-14-deoxy-(E)-15-((2-amino-7-methyl-7H-pyrrolo[2,3-d]pyrimidin-5-yl)methylene)-8,17-epoxyandrographolide] | < 100 µg/mL | > 100 µg/mL | < 50 µg/mL | < 50 µg/mL | > 100 µg/mL | < 50 µg/mL |  |  |
| C=C1CCC2[C@](C)(CC[C@@H](O)[C@@]2(C)CO)C1/C=C/C1=CC(=C\C2=CN3CC(=O)N(C)C3C=C2)/OC1=O (stereo partly shown) [Example 63, 11,12-dedihydro-14-deoxy-(E)-15-((1-methyl-2-oxo-1,2,3,8a-tetrahydroimidazo[1,2-a]pyridin-6-yl)methylene)andrographolide] | < 50 µg/mL | < 100 µg/mL | < 50 µg/mL | < 50 µg/mL | < 100 µg/mL | < 50 µg/mL |  |  |
| C=C1CCC2[C@](C)(CC[C@@H](O)[C@@]2(C)CO)C1/C=C/C1=CC(=C\c2cnc(N3CCCC3CO)nc2)/OC1=O (stereo partly shown) [Example 65, 11,12-dedihydro-14-deoxy-(E)-15-((2-(2-(hydroxymethyl)pyrrolidin-1-yl)pyrimidin-5-yl)methylene)andrographolide] | > 100 µg/mL | > 100 µg/mL | < 50 µg/mL | < 50 µg/mL | < 100 µg/mL | < 50 µg/mL |  |  |
| CCN(CC)c1ccc(/C=C2C=C(/C=C/C3C4(CCC5[C@]3(C)CC[C@@H](O)[C@@]5(C)CO)CO4)C(=O)O\2)c(O)c1 (stereo partly shown) [Example 66] | < 100 µg/mL | < 50 µg/mL | < 100 µg/mL | < 50 µg/mL | < 50 µg/mL | < 100 µg/mL |  |  |
| CN1C(=O)CN2C=C(/C=C3C=C(/C=C/C4C5(CCC6[C@]4(C)CC[C@@H](O)[C@@]6(C)CO)CO5)C(=O)O\3)C=CC21 (stereo partly shown) [Example 68, 11,12-dedihydro-14-deoxy-(E)-15-((1-methyl-2-oxo-1,2,3,8a-tetrahydroimidazo[1,2-a]pyridin-6-yl)methylene)-8,17-epoxyandrographolide] | > 100 µg/mL | < 50 µg/mL | < 50 µg/mL | < 50 µg/mL | < 50 µg/mL | > 100 µg/mL |  |  |
| C[C@]12CC[C@@H](O)[C@@](C)(CO)C1CCC1(CO1)C2/C=C/C1=CC(=C\c2cnc(N3CCCC3CO)nc2)/OC1=O (stereo partly shown) [Example 69, 11,12-dedihydro-14-deoxy-(E)-15-((2-(2-(hydroxymethyl)pyrrolidin-1-yl)pyrimidin-5-yl)methylene)-8,17-epoxyandrographolide] | < 100 µg/mL | > 100 µg/mL | < 50 µg/mL | < 50 µg/mL | > 100 µg/mL | < 50 µg/mL |  |  |
| CN1CCN(c2ccc(/C=C3C=C(/C=C/C4C5(CCC6[C@]4(C)CC[C@@H](O)[C@@]6(C)CO)CO5)C(=O)O\3)cc2)CC1 (stereo partly shown) [Example 71, 11,12-dedihydro-14-deoxy-(E)-15-(4-(4-methylpiperazin-1-yl)benzylidene)-8,17-epoxyandrographolide] | < 100 µg/mL | < 50 µg/mL | < 100 µg/mL | < 50 µg/mL | < 50 µg/mL | > 100 µg/mL |  |  |
| CN(C)c1ccc(/C=C2C=C(/C=C/C3C4(CO4)C(N4CCOCC4)CC4[C@]3(C)CC[C@@H](O)[C@@]4(C)CO)C(=O)O\2)cc1 (stereo partly shown) [Example 76, 7-(4-morpholino)-11,12-dedihydro-14-deoxy-15-(4-(dimethylamino)benzylidene)andrographolide] | < 100 µg/mL | > 100 µg/mL | < 50 µg/mL | < 50 µg/mL | > 100 µg/mL | < 100 µg/mL |  |  |
| C=C1C(N2CCOCC2)CC2[C@](C)(CC[C@@H](O)[C@@]2(C)CO)C1/C=C/C1=CCOC1=O (stereo partly shown) [Example 83] | < 50 µg/mL | < 50 µg/mL | < 50 µg/mL |  | < 50 µg/mL | < 50 µg/mL | < 1 µg/mL | < 1 µg/mL |
